In patent US7794936B1, “Using thymidine analogs to improve replication in an expanded genetic alphabet” (priority 2006, dated 2010):

How the values were obtained:
2-aminoadenine = settings: cited from earlier work
KlenTaq polymerase [1] = biological target: T1, KlenTaq polymerase (Thermus aquaticus, UniProt P19821); assay: Running-start primer extension reactions, incorporation opposite template isoG; assay type: biochemical; settings: template T-1, primer P-1, 72° C.; for incorporation / misincorporation opposite isoG (gel band, in words): time points 0.5, 1.0, 3.0 min
T1 construct: The “Klenow” fragment of Taq polymerase (Titanuim™ Taq) was purchased from BD Biosciences; purchased BD Biosciences (Mountain View, Calif.)
Experimental: (§1) The “Klenow” fragment of Taq polymerase (Titanuim™ Taq) was purchased from BD Biosciences (Mountain View, Calif.). As Titanium™ Taq is a “hot start” enzyme, the enzyme was heated to 95° C. for 2 minutes, followed by rapid cooling to ambient temperature prior to any primer extension reactions. Similarly, all polymerase chain reactions included an initial 2 minute 95° C. denaturation cycle.
In a typical primer extension reaction (25 μL total volume), 5′-^32P labeled primer (P-1, 25 pmol) and template (T-1, 30 pmol) were mixed with buffer (10 mM bis-trispropane-HCl pH 9.1, 5 mM MgCl2, 40 mM potassium acetate, 0.1 mg/ml bovine serum albumin), heated (95° C., 5 min), and cooled to room temperature over 1 hour. Polymerase (1 unit) was added, and the mixture again heated (72° C., 10 sec). Each PCR was initiated by adding the appropriate dNTPs (100 μM final concentration). Aliquots (2 μL) were removed from the mixture at time intervals, diluted into a PAGE loading/quench buffer (2 μL, 20 mM EDTA in formamide), heated (95° C., 5 min) and resolved by electrophoresis using a 20% PAGE (7 M urea). The gel was analyzed by phosphorimager. To enhance reproducibility, master mixes of the primer/template in buffer were prepared in large scale (100 μL).
Running-start primer extension reactions were performed with KlenTaq to determine the ability of the enzyme to incorporate either TTP or 2-thioTTP opposite isoG. For each reaction, the polymerase was challenged to misincorporate the respective triphosphate opposite the isoG residue at position 26 in the template (T-1), 3 nucleotides downstream of the primer (Pf-1) terminus. Reactions were run in parallel, one containing dGTP and TTP, one containing dGTP and 2-thioTTP, one containing dGTP and isoCTP (positive control), and one containing only dGTP (negative control). Aliquots of each reaction were quenched at various times and analyzed by PAGE on a 20% polyacrylamide gel.

KlenTaq polymerase [2] = biological target: T1, KlenTaq polymerase; assay: Direct nucleotide competition, single-turnover primer extension with APM gel separation; assay type: biochemical
Experimental: as §1
Single turnover primer extension reactions were performed by annealing 5′-^32P labeled primer (P-2f, 1 pmol) and template (T-2 or T-3, 1 pmol) in the appropriate buffer described above. Polymerase (1 pmol) was added, and the mixture was heated (72° C., 10 sec). The reaction was initiated by adding isoCTP (100 μM) and either 2-thioTTP (100 μM) or TTP (100 μM) in the presence of unlabeled trap DNA (P-2f, 100 pmol, T-2, 100 pmol). The reaction was quenched (20 mM EDTA in HCONH2) after 20 sec, and the samples resolved by 20% PAGE (7 M urea) containing p-acrylamidophenylmercury chloride (APM, 1 μg/mL). […] APM was synthesized as described [Igl88].
In two parallel reactions, one containing equal concentrations of 2-thioTTP and TTP, and one containing equal concentrations of 2-thioTTP and isoCTP, KlenTaq polymerase was challenged to choose a nucleotide to incorporate opposite isoG. […] The gel was analyzed via radioimaging.

KlenTaq polymerase [3] = biological target: T1, KlenTaq polymerase; assay: PCR amplification using 2-thioTTP as substitute for TTP (30 rounds, template T-3); assay type: biochemical; settings: 30 rounds of PCR, dATP, dCTP, dGTP plus thymidine analog, 2% agarose gel
Experimental: as §1
Amplicons testing the substitution of 2-thioTTP for TTP in a PCR were generated as above, using primers P-2f and P-2r (1 pmol each), template T-3 (6×10^4 molecules), and either all four natural dNTPs (100 μM each) or by substituting 2-thioTTP for TTP.
After showing that 2-thioTTP is misincorporated less frequently than TTP opposite isoG residues, we then established that 2-thioTTP works in a PCR amplification. For this purpose, replicate polymerase chain reactions with KlenTaq polymerase were performed using the PCR replicon consisting of primers P-2f and P-2r and template T-3. Three reactions were run in parallel, one containing the four natural dNTPs (positive control), one containing dCTP, dGTP, dATP, and 2-thioTTP, and one without TTP (negative control). Each amplification was cycled for 30 rounds, and the products were analyzed by electrophoresis on a 2% agarose gel.

KlenTaq polymerase [4] = biological target: T1, KlenTaq polymerase; assay: PCR fidelity assay of isoC:isoG base pair replication (acid cleavage at isoC); assay type: biochemical; settings: six letter PCR, template T-2, 30 cycles, fit to Y=100×(½+f/2)^x
Experimental: as §1
For each 6-letter nucleotide system investigated, seven parallel PCR mixtures were cycled (30 rounds, 95° C. for 45 sec. then 45° C. for 45 sec. then 72° C. for 1.5 min) with the same amounts of primers P-2f (^32P labeled) and P-2r (1 pmol; 6×10^11 molecules) and varying concentrations of template T2. […] As each 10 fold dilution in template was equivalent to ca. 3.3 rounds of amplification, the fidelity of the isoC:isoG replication could be monitored on a round-by-round basis, with each amplicon requiring a different number of exponential amplifications to consume the primers (Table 2.)
Following amplification, the mixtures were treated with an equal volume of acetic acid (0.1 mM), and heated (95° C., 30 min), a procedure that depyrimidinylates the iso-cytidines that have been incorporated. […] The NH4OH was allowed to evaporate, and the mixtures diluted in 2 volumes of gel loading buffer (98% formamide, 10 mM EDTA, 1 mg/mL bromophenol blue, 1 mg/mL xylene cyanol FF) and analyzed by denaturing PAGE (17%). […]

T1 sequence (P19821 281-832 limits assumed): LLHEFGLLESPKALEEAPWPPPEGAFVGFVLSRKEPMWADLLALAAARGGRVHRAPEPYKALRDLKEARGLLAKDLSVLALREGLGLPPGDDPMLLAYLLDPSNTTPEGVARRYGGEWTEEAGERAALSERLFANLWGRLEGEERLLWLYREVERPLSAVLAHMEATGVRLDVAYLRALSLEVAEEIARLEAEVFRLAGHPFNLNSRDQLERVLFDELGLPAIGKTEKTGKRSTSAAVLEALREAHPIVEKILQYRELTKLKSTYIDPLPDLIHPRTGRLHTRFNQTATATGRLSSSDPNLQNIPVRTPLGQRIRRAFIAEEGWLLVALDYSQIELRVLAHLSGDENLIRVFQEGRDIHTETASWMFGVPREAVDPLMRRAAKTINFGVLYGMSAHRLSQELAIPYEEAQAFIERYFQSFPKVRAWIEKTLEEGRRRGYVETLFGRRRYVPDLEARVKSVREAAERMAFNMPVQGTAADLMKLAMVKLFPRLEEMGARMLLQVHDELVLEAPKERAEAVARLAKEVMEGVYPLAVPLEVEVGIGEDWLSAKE

| SMILES | decrease in Tm by pair with 2-aminoadenine (2-aminoadenine; 20 nucleotide duplex) [°C] | destabilization of the duplex (ΔG) by pair with 2-aminoadenine (2-aminoadenine; nucleobase pair between 2-thioT and 2-aminoadenine) [kcal/mol] | incorporation / misincorporation opposite isoG (gel band, in words) (KlenTaq polymerase [1]) | substrate preference for incorporation opposite adenosine (KlenTaq polymerase [2]; 2-thioTTP and TTP in competition, template T-3) | extended product resulting from incorporation of 2-thioTTP opposite isoG (KlenTaq polymerase [2]; equal concentrations (100 μM) of 2-thioTTP and either TTP or isoCTP, template T-2, primer P-2f, 20 sec) | amount of PCR product (KlenTaq polymerase [3]) | fidelity-per-round of PCR for isoC:isoG base pair (KlenTaq polymerase [4]) [%] | incorporation opposite isoG, isoCTP relative to TTP (KlenTaq polymerase [1]; after one and three minutes of incubation, dNTPs 100 μM) |
| --- | --- | --- | --- | --- | --- | --- | --- | --- |
| Cc1cn([C@H]2C[C@H](O)[C@@H](CO)O2)c(=S)[nH]c1=O [2-thioT, 2-thiothymidine] | 2.4 | 0.8 |  |  |  |  |  |  |
| Cc1cn([C@H]2C[C@H](O)[C@@H](COP(=O)(O)OP(=O)(O)OP(=O)(O)O)O2)c(=S)[nH]c1=O [2-thioTTP, 2-thiothymidine triphosphate] |  |  | misincorporated very little | prefers 2-thioTTP over TTP | less than 1% | comparable amounts of product | 98 |  |
| Nc1nc(=O)ccn1[C@H]1C[C@H](O)[C@@H](COP(=O)(O)OP(=O)(O)OP(=O)(O)O)O1 [isoCTP, 2′-deoxy-iso-cytidine triphosphate] |  |  | incorporated most efficiently |  |  |  |  | approximately 2 fold |
